Measured values from PMC5218480 (PLoS ONE, 2017).

Tested on: MV-4-11 cells
Experiment: Gene expression microarray analysis (Affymetrix PrimeView) and GSEA
Assay type: cell-based, human
Design: RFU PODN (11730768_x_at) / Fold change /veh PODN (11730768_x_at) / RFU LINC00158 (11744669_a_at) / Fold change /veh LINC00158 (11744669_a_at) / RFU DUSP10 (11751237_a_at) / Fold change /veh DUSP10 (11751237_a_at) / RFU ID3 (11757404_x_at) / Fold change /veh ID3 (11757404_x_at) / RFU PLEKHG5 (11737974_s_at) / Fold change /veh PLEKHG5 (11737974_s_at) / RFU LRRC4B (11730491_at) / Fold change /veh LRRC4B (11730491_at) / RFU GIMAP4 (11747438_a_at) / Fold change /veh GIMAP4 (11747438_a_at) / RFU KRT8 (11758183_x_at) / Fold change /veh KRT8 (11758183_x_at) / RFU CNN1 (11734310_a_at) / Fold change /veh CNN1 (11734310_a_at) / RFU VPS37D (11726825_at) / Fold change /veh VPS37D (11726825_at) / RFU C10orf10 (11716522_x_at) / Fold change /veh C10orf10 (11716522_x_at) / RFU KIR2DL2 /// KIR2DL4 /// KIR2DL5A /// KIR2DL5B /// KIR2DS1 /// KIR2DS2 /// KIR2DS3 /// KIR2DS4 /// KIR3DL3 /// KIR3DL3 /// KIR3DS1 (11738374_at) / Fold change /veh KIR2DL2 /// KIR2DL4 /// KIR2DL5A /// KIR2DL5B /// KIR2DS1 /// KIR2DS2 /// KIR2DS3 /// KIR2DS4 /// KIR3DL3 /// KIR3DL3 /// KIR3DS1 (11738374_at) / RFU C1QL1 (11718748_at) / Fold change /veh C1QL1 (11718748_at) / RFU TMPRSS4 (11747572_a_at) / Fold change /veh TMPRSS4 (11747572_a_at) / RFU HAMP (11756126_x_at) / Fold change /veh HAMP (11756126_x_at) / RFU RNFT2 (11725882_a_at) / Fold change /veh RNFT2 (11725882_a_at) / RFU NR4A2 (11747474_a_at) / Fold change /veh NR4A2 (11747474_a_at) / RFU ABCC12 (11746883_a_at) / Fold change /veh ABCC12 (11746883_a_at) / RFU TMEM136 (11760407_x_at) / Fold change /veh TMEM136 (11760407_x_at) / RFU CLDN22 /// WWC2 (11732394_at) / Fold change /veh CLDN22 /// WWC2 (11732394_at) / RFU HLA-DPB1 (11760878_x_at) / Fold change /veh HLA-DPB1 (11760878_x_at) / RFU SPINT1 (11716480_a_at) / Fold change /veh SPINT1 (11716480_a_at) / RFU GAP43 (11754022_s_at) / Fold change /veh GAP43 (11754022_s_at) / RFU A4GNT (11735810_at) / Fold change /veh A4GNT (11735810_at) / RFU PRB3 (11715151_x_at) / Fold change /veh PRB3 (11715151_x_at) / RFU TUBB4B (11761932_at) / Fold change /veh TUBB4B (11761932_at) / RFU CAPN14 (11732068_a_at) / Fold change /veh CAPN14 (11732068_a_at) / RFU TMCC2 (11721928_a_at) / Fold change /veh TMCC2 (11721928_a_at) / RFU IRGQ (11745062_a_at) / Fold change /veh IRGQ (11745062_a_at) / RFU FAM174B (11720279_a_at) / Fold change /veh FAM174B (11720279_a_at) / RFU TMPRSS4 (11748680_a_at) / Fold change /veh TMPRSS4 (11748680_a_at) / RFU FAM212B (11763350_a_at) / Fold change /veh FAM212B (11763350_a_at) / RFU PLEKHG5 (11743358_a_at) / Fold change /veh PLEKHG5 (11743358_a_at) / RFU ZSCAN30 (11745921_a_at) / Fold change /veh ZSCAN30 (11745921_a_at) / RFU CMKLR1 (11741424_a_at) / Fold change /veh CMKLR1 (11741424_a_at) / RFU LOC101060620 /// MAPK8IP1 (11723275_at) / Fold change /veh LOC101060620 /// MAPK8IP1 (11723275_at) / RFU SPTSSB (11747773_x_at) / Fold change /veh SPTSSB (11747773_x_at) / RFU PRSS12 (11739890_at) / Fold change /veh PRSS12 (11739890_at) / RFU BIN1 (11741810_x_at) / Fold change /veh BIN1 (11741810_x_at) / RFU WNT11 (11732464_a_at) / Fold change /veh WNT11 (11732464_a_at) / RFU C10orf10 (11716521_a_at) / Fold change /veh C10orf10 (11716521_a_at) / RFU C5orf56 (11738089_at) / Fold change /veh C5orf56 (11738089_at) / RFU CYB561 (11721691_x_at) / Fold change /veh CYB561 (11721691_x_at) / RFU ANKRD19P (11752326_a_at) / Fold change /veh ANKRD19P (11752326_a_at) / RFU OR2T12 /// OR2T33 /// OR2T8 (11738714_s_at) / Fold change /veh OR2T12 /// OR2T33 /// OR2T8 (11738714_s_at) / RFU VCAN (11748164_a_at) / Fold change /veh VCAN (11748164_a_at) / RFU JSRP1 (11732532_at) / Fold change /veh JSRP1 (11732532_at) / RFU KRTAP10-11 (11738290_x_at) / Fold change /veh KRTAP10-11 (11738290_x_at) / RFU MYO3A (11730013_a_at) / Fold change /veh MYO3A (11730013_a_at) / RFU EBF3 (11725865_a_at) / Fold change /veh EBF3 (11725865_a_at) / RFU CAMK2N1 (11719241_x_at) / Fold change /veh CAMK2N1 (11719241_x_at) / RFU C5orf56 (11738088_a_at) / Fold change /veh C5orf56 (11738088_a_at) / RFU OLFML3 (11715873_a_at) / Fold change /veh OLFML3 (11715873_a_at) / RFU LOC100653217 /// NTM (11731650_a_at) / Fold change /veh LOC100653217 /// NTM (11731650_a_at) / RFU MAPK11 (11762145_a_at) / Fold change /veh MAPK11 (11762145_a_at) / RFU FIZ1 (11724087_x_at) / Fold change /veh FIZ1 (11724087_x_at) / RFU OASL (11726364_x_at) / Fold change /veh OASL (11726364_x_at) / RFU SOX15 (11748057_x_at) / Fold change /veh SOX15 (11748057_x_at) / RFU CD79A (11719716_a_at) / Fold change /veh CD79A (11719716_a_at) / RFU HIST1H1D (11736915_at) / Fold change /veh HIST1H1D (11736915_at) / RFU CASKIN2 (11723855_a_at) / Fold change /veh CASKIN2 (11723855_a_at) / RFU LOC730098 (11760151_x_at) / Fold change /veh LOC730098 (11760151_x_at) / RFU OR4N2 (11742367_at) / Fold change /veh OR4N2 (11742367_at) / RFU PRRT2 (11749266_a_at) / Fold change /veh PRRT2 (11749266_a_at) / RFU SNX32 (11753110_a_at) / Fold change /veh SNX32 (11753110_a_at) / RFU CDHR5 (11726645_a_at) / Fold change /veh CDHR5 (11726645_a_at) / RFU RCAN1 (11760418_a_at) / Fold change /veh RCAN1 (11760418_a_at) / RFU FAM167A (11723789_a_at) / Fold change /veh FAM167A (11723789_a_at) / RFU FAM26E (11764081_at) / Fold change /veh FAM26E (11764081_at) / RFU ISYNA1 (11749810_s_at) / Fold change /veh ISYNA1 (11749810_s_at) / RFU ACY1 (11761880_at) / Fold change /veh ACY1 (11761880_at) / RFU 11764098_at / Fold change /veh 11764098_at / RFU SAMD14 (11745864_x_at) / Fold change /veh SAMD14 (11745864_x_at) / RFU NPB (11741838_a_at) / Fold change /veh NPB (11741838_a_at) / RFU TMPRSS6 (11731388_a_at) / Fold change /veh TMPRSS6 (11731388_a_at) / RFU KRTAP10-2 (11738614_at) / Fold change /veh KRTAP10-2 (11738614_at) / RFU ARHGAP8 /// PRR5-ARHGAP8 (11727945_x_at) / Fold change /veh ARHGAP8 /// PRR5-ARHGAP8 (11727945_x_at) / RFU KRTAP5-7 /// NADSYN1 (11734609_at) / Fold change /veh KRTAP5-7 /// NADSYN1 (11734609_at) / RFU RASL12 (11751679_a_at) / Fold change /veh RASL12 (11751679_a_at) / RFU CDKN2B (11736163_a_at) / Fold change /veh CDKN2B (11736163_a_at) / RFU PRF1 (11729649_at) / Fold change /veh PRF1 (11729649_at) / RFU, ZNF638 /// ZNF638-IT1 / Fold change vs veh, ZNF638 /// ZNF638-IT1 / RFU, PANK3 / Fold change vs veh, PANK3 / RFU, SH3YL1 / Fold change vs veh, SH3YL1 / RFU, ZEB2 / Fold change vs veh, ZEB2 / RFU, NRIP1 / Fold change vs veh, NRIP1 / RFU, PTTG1IP / Fold change vs veh, PTTG1IP / RFU, CAPN2 / Fold change vs veh, CAPN2 / RFU, MED14 / Fold change vs veh, MED14 / RFU, SNORA58 / Fold change vs veh, SNORA58 / RFU, C1orf63 / Fold change vs veh, C1orf63 / RFU, LRRFIP1 / Fold change vs veh, LRRFIP1 / RFU, NDUFAF7 / Fold change vs veh, NDUFAF7 / RFU, SLC12A2 / Fold change vs veh, SLC12A2 / RFU, IBTK / Fold change vs veh, IBTK / RFU, ESF1 / Fold change vs veh, ESF1 / Fold change vs veh, TMEM50B / RFU, TAOK1 / Fold change vs veh, TAOK1 / RFU, ACBD3 / Fold change vs veh, ACBD3 / RFU, TMA16 / Fold change vs veh, TMA16 / RFU, RWDD3 / Fold change vs veh, RWDD3 / RFU, BCAT1 / Fold change vs veh, BCAT1 / RFU, EDEM3 / Fold change vs veh, EDEM3 / RFU, TMEM33 / Fold change vs veh, TMEM33 / RFU, WDR75 / Fold change vs veh, WDR75 / RFU, AHCTF1 / Fold change vs veh, AHCTF1 / RFU, TFRC / Fold change vs veh, TFRC / RFU, ZDHHC17 / Fold change vs veh, ZDHHC17 / RFU, NOM1 / Fold change vs veh, NOM1 / RFU, ARL8B / Fold change vs veh, ARL8B / RFU, ZBTB11 / Fold change vs veh, ZBTB11 / RFU, TAMM41 / Fold change vs veh, TAMM41 / RFU, KIAA1704 /// LOC100996395 / Fold change vs veh, KIAA1704 /// LOC100996395 / RFU, ING1 / Fold change vs veh, ING1 / RFU, TRMT61B / Fold change vs veh, TRMT61B / RFU, FUBP3 / Fold change vs veh, FUBP3 / RFU, TP53 / Fold change vs veh, TP53 / RFU, TNKS2 / Fold change vs veh, TNKS2 / RFU, ZFP14 / Fold change vs veh, ZFP14 / RFU, ACTR2 / Fold change vs veh, ACTR2 / RFU, PPP3R1 / Fold change vs veh, PPP3R1 / RFU, PIK3R1 / Fold change vs veh, PIK3R1 / RFU, HNRNPA1 / Fold change vs veh, HNRNPA1 / RFU, RNF170 / Fold change vs veh, RNF170 / RFU, ZNF28 / Fold change vs veh, ZNF28 / RFU, RNGTT / Fold change vs veh, RNGTT / RFU, OGT / Fold change vs veh, OGT / RFU, BRD1 / Fold change vs veh, BRD1 / RFU, MARS / Fold change vs veh, MARS / RFU, ZNF655 / Fold change vs veh, ZNF655 / RFU, FAHD1 / Fold change vs veh, FAHD1 / RFU, BDP1 / Fold change vs veh, BDP1 / RFU, LRRCC1 / Fold change vs veh, LRRCC1 / RFU, ARID1A / Fold change vs veh, ARID1A / RFU, ZNF146 / Fold change vs veh, ZNF146 / RFU, ZNF330 / Fold change vs veh, ZNF330 / RFU, GPN3 / Fold change vs veh, GPN3 / RFU, C9orf123 / Fold change vs veh, C9orf123 / RFU, N4BP2L2 / Fold change vs veh, N4BP2L2 / RFU, ARFIP1 / Fold change vs veh, ARFIP1 / RFU, FAM179B / Fold change vs veh, FAM179B / RFU, BCL10 / Fold change vs veh, BCL10 / RFU, UHRF1BP1L / Fold change vs veh, UHRF1BP1L / RFU, BET1 / Fold change vs veh, BET1 / RFU, CNOT2 / Fold change vs veh, CNOT2 / RFU, ZNF268 / Fold change vs veh, ZNF268 / Fold change vs veh, ZNF507 / RFU, DGCR2 / Fold change vs veh, DGCR2 / RFU, WDSUB1 / Fold change vs veh, WDSUB1 / Fold change vs veh, HSP90B1 /// MIR3652 / RFU, ADSS / Fold change vs veh, ADSS / RFU, GK / Fold change vs veh, GK / RFU, ZNF148 / Fold change vs veh, ZNF148 / RFU, TAF9 / Fold change vs veh, TAF9 / RFU, SLC1A5 / Fold change vs veh, SLC1A5 / RFU, SLMO2 / Fold change vs veh, SLMO2 / RFU, ABCC4 / Fold change vs veh, ABCC4 / RFU, LOC101060439 /// RAP1B / Fold change vs veh, LOC101060439 /// RAP1B / RFU, RFX7 / Fold change vs veh, RFX7 / RFU, GTPBP10 / Fold change vs veh, GTPBP10 / RFU, CNEP1R1 / Fold change vs veh, CNEP1R1 / RFU, BIVM-ERCC5 /// ERCC5 / Fold change vs veh, BIVM-ERCC5 /// ERCC5 / RFU, ILF3 / Fold change vs veh, ILF3 / RFU 11762660_at / Fold change /veh 11762660_at / RFU VCAN (11757783_s_at) / Fold change /veh VCAN (11757783_s_at) / RFU DDX43 (11728927_at) / Fold change /veh DDX43 (11728927_at) / RFU KRT8 (11758188_x_at) / Fold change /veh KRT8 (11758188_x_at) / RFU NKD1 (11759106_at) / Fold change /veh NKD1 (11759106_at) / RFU SRD5A1 (11742802_a_at) / Fold change /veh SRD5A1 (11742802_a_at) / RFU TPSAB1 /// TPSB2 (11721975_s_at) / Fold change /veh TPSAB1 /// TPSB2 (11721975_s_at) / RFU GSTM3 (11746129_a_at) / Fold change /veh GSTM3 (11746129_a_at) / RFU IL23R (11737362_x_at) / Fold change /veh IL23R (11737362_x_at) / RFU TMEM51 (11727254_a_at) / Fold change /veh TMEM51 (11727254_a_at) / RFU PIWIL2 (11732686_x_at) / Fold change /veh PIWIL2 (11732686_x_at) / RFU ORM1 (11744905_x_at) / Fold change /veh ORM1 (11744905_x_at) / RFU CCDC152 (11743942_at) / Fold change /veh CCDC152 (11743942_at) / RFU ECM1 (11717891_a_at) / Fold change /veh ECM1 (11717891_a_at) / RFU IL23R (11748794_a_at) / Fold change /veh IL23R (11748794_a_at) / RFU TNFAIP8L3 (11732012_x_at) / Fold change /veh TNFAIP8L3 (11732012_x_at) / RFU MBOAT4 (11741988_at) / Fold change /veh MBOAT4 (11741988_at) / RFU 11764193_at / Fold change /veh 11764193_at / RFU TMEM53 (11763286_at) / Fold change /veh TMEM53 (11763286_at) / RFU MAGEB2 (11727129_at) / Fold change /veh MAGEB2 (11727129_at) / RFU TMEM200A (11744735_a_at) / Fold change /veh TMEM200A (11744735_a_at) / RFU CCDC152 (11751479_a_at) / Fold change /veh CCDC152 (11751479_a_at) / RFU FAM211A (11726209_a_at) / Fold change /veh FAM211A (11726209_a_at) / RFU RGS16 (11746705_a_at) / Fold change /veh RGS16 (11746705_a_at) / RFU VCAN (11755009_s_at) / Fold change /veh VCAN (11755009_s_at) / RFU RHOB (11743442_s_at) / Fold change /veh RHOB (11743442_s_at) / RFU RGS16 (11720943_a_at) / Fold change /veh RGS16 (11720943_a_at) / RFU RGS16 (11720944_at) / Fold change /veh RGS16 (11720944_at) / RFU, VPS4B / Fold change vs veh, VPS4B / RFU, CREB1 / Fold change vs veh, CREB1 / RFU, DNAJC13 / Fold change vs veh, DNAJC13 / RFU, GNAQ / Fold change vs veh, GNAQ / RFU, CDK5R1 / Fold change vs veh, CDK5R1 / RFU, ZRANB3 / Fold change vs veh, ZRANB3 / RFU, CUL4A / Fold change vs veh, CUL4A / RFU, CCNY / Fold change vs veh, CCNY / RFU, UFL1 / Fold change vs veh, UFL1 / RFU, COG3 / Fold change vs veh, COG3 / RFU, DIAPH2 / Fold change vs veh, DIAPH2 / RFU, SKA2 / Fold change vs veh, SKA2 / RFU, AFF3 / Fold change vs veh, AFF3 / RFU, LMF1 / Fold change vs veh, LMF1 / RFU, IPO11 / Fold change vs veh, IPO11 / RFU, DFFB / Fold change vs veh, DFFB / RFU, FOXP1 / Fold change vs veh, FOXP1 / RFU, CARD8 / Fold change vs veh, CARD8 / RFU, STRN3 / Fold change vs veh, STRN3 / RFU, ADK / Fold change vs veh, ADK / RFU, RASSF2 / Fold change vs veh, RASSF2 / RFU, WIPF1 / Fold change vs veh, WIPF1 / RFU, LARP1B / Fold change vs veh, LARP1B / RFU, RASA1 / Fold change vs veh, RASA1 / RFU, RB1 / Fold change vs veh, RB1 / RFU, PPFIA1 / Fold change vs veh, PPFIA1 / RFU, MAT2A / Fold change vs veh, MAT2A / RFU, CCT5 / Fold change vs veh, CCT5 / RFU, WDR92 / Fold change vs veh, WDR92 / RFU, CUX1 / Fold change vs veh, CUX1 / RFU, TTC7A / Fold change vs veh, TTC7A / RFU, TMEM135 / Fold change vs veh, TMEM135 / RFU, DEPTOR / Fold change vs veh, DEPTOR / RFU, CPM / Fold change vs veh, CPM / RFU, DNAJB6 / Fold change vs veh, DNAJB6 / RFU, CACNA2D3 / Fold change vs veh, CACNA2D3 / RFU, DTX4 / Fold change vs veh, DTX4 / RFU, TFCP2 / Fold change vs veh, TFCP2 / RFU, GMCL1 /// GMCL1P1 / Fold change vs veh, GMCL1 /// GMCL1P1 / RFU, AEBP2 / Fold change vs veh, AEBP2 / RFU, SNHG1 /// SNORD22 /// SNORD25 /// SNORD26 /// SNORD27 /// SNORD28 /// SNORD29 /// SNORD31 / Fold change vs veh, SNHG1 /// SNORD22 /// SNORD25 /// SNORD26 /// SNORD27 /// SNORD28 /// SNORD29 /// SNORD31 / Fold change (Aza/veh), C12orf56 (ProbeSet 11735607_a_at) / Fold change (ACY-1035/veh), C12orf56 (ProbeSet 11735607_a_at) / Fold change (Aza/veh), FGFR1OP (ProbeSet 11751329_s_at) / Fold change (ACY-1035/veh), FGFR1OP (ProbeSet 11751329_s_at) / Fold change (Aza/veh), VPS36 (ProbeSet 11739960_a_at) / Fold change (ACY-1035/veh), VPS36 (ProbeSet 11739960_a_at) / RFU SYPL1 (11715823_x_at) / Fold change /veh SYPL1 (11715823_x_at) / RFU IGFBP7 (11715501_s_at) / Fold change /veh IGFBP7 (11715501_s_at) / RFU REEP3 (11722064_at) / Fold change /veh REEP3 (11722064_at) / RFU IGLL1 (11728026_x_at) / Fold change /veh IGLL1 (11728026_x_at): dose or concentration left out as unconfirmed
Conditions: ProbeSet 11721969_s_at; LIST B

Nc1ncn([C@@H]2O[C@H](CO)[C@@H](O)[C@H]2O)c(=O)n1 [azacitidine]
RFU, BDP1: 496.27 RFU
